We go through one compound from PubChem BioAssay (NCI).

In this assay the test system is RXF-631 renal. Put plainly: NCI tumour cell line growth inhibition, 48 h.

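Step 1: Grow cells in 96-well plates. Step 2: Expose to compound for 48 hours at 5 concentrations. Step 3: Interpolate endpoints linearly; if unreached, use highest concentration. At the TGI there is no net growth.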

For the compound `NCCCNCCSSCc1ccccc1CSSCCNCCCN`, the TGI is more than 100 µM.
